The nature of data set [1]: Absorption of TSC into the blood stream after intramuscular injection with gamma cyclodextrin. The settings on record: rats. Type of data set: in vivo. The text has this: (§1) The use of gamma-cyclodextrin with TSC increases the solubility of TSC in water by 3-7 times. […] The solutions need not be equal-molar. The incorporation of the gamma cyclodextrin also allows for TSC to be absorbed into the blood stream when injected intramuscularly.

Data set [2] can be described thus: Solubility of TSC in water / aqueous solution with cyclodextrin. It counts as physicochemical.
Source text: as §1
A trans carotenoid such as TSC can be formulated with a cyclodextrin as noted above and a non-metabolized sugar such as mannitol (e.g. d-mannitol to adjust the osmotic pressure to be the same as that of blood). Solutions containing over 20 mg TSC/ml of solution can be made this way. This solution can be added to isotonic saline or to other isotonic solutions in order to dilute it and still maintain the proper osmolality.

The nature of data set [3]: Stability of TSC in formulation as a function of pH. Type of data set: physicochemical. The procedure: Mannitol can be used to adjust osmolality and its concentration varies depending on the concentration of other ingredients. The glycine is held constant. […] The use of glycine is compatible with lyophilization. Alternatively, the TSC and cyclodextrin is formulated using a 50 mM bicarbonate buffer in place of the glycine.

For `CC(/C=C/C=C(\C)C(=O)[O-])=C\C=C\C=C(C)\C=C\C=C(/C)C(=O)[O-].[Na+].[Na+]` [TSC, trans sodium crocetinate], the “absorption into the blood stream when injected intramuscularly” value in data set [1] is “Absorption is quick”. In addition, the “TSC content of aqueous solution” value in data set [2] (TSC and gamma-cyclodextrin, aqueous solution) is recorded as ≤ 44 milligrams of TSC per ml of solution. Also, the “TSC content of solution” value in data set [2] (formulated with a cyclodextrin and mannitol) is given as “over 20 mg TSC/ml of solution”. Further, in data set [3], the “stability versus pH” value is “more stable at higher pHs”.

The record behind these values is patent US20210244698A1, “DIFFUSION ENHANCING COMPOUNDS AND THEIR USE WITH THROMBECTOMY AND EMBOLECTOMY AND OTHER VASCULAR DISEASE PROCEDURES” (DIFFUSION PHARMACEUTICALS LLC, priority 2018, published 2021).
